# Experimental data: publication PMC9465256, “Discovering monoacylglycerol lipase inhibitors by a combination of fluorogenic substrate assay and activity-based protein profiling” (Frontiers in Pharmacology, 2022)
# Tests used:
# human ABHD6 = molecular target: T1, human ABHD6 (Homo sapiens, UniProt Q9BV23); assay: ABHD6 activity assay (AA-HNA fluorogenic substrate); format: biochemical; conditions: 10 µM
# T1 construct: expressed in transfected cells; host or cells: HEK293T (transient transfection; membrane fraction)
# T1 sequence (Q9BV23 1-337): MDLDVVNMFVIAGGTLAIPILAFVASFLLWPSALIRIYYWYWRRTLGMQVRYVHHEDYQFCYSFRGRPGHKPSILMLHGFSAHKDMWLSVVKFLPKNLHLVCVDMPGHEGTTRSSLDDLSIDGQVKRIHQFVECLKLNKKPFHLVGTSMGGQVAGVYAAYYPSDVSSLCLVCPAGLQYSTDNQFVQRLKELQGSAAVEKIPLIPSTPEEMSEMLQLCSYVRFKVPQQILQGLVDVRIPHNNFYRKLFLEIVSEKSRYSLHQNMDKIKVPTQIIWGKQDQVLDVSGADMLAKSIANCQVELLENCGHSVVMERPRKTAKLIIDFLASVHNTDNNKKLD
# How it was run: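 Membranes from HEK293T cells transiently overexpressing human ABHD6 (50 μg/ml final) were preincubated 30 min with inhibitor in 40 mM HEPES pH 7.5, 0.1 mg/ml BSA, 5% DMSO. Hydrolysis of 200 µM AA-HNA was followed by fluorescence for 30 min, activity taken as the 5–15 min slope.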
# ABHD6 in cancer cells = assay: Competitive ABPP in cancer cell lysates: ABHD6 band; format: biochemical; conditions: 10 μM preincubation, A431 and B16-F10 cells
# Method: To identify the potential off-targets of the compounds with anti-cancer activities, ABPP was applied. Cancer cells were seeded in the dishes and were washed with PBS, scraped, centrifugated (3,000 × g, 3 min) and pellets snap frozen in liquid in nitrogen. For ABPP experiments, the cell pellets were lysed by probe sonication (3 × 10 bursts) in PBS, followed by the determination of protein concentration of the intact cell lysate by Qubit assay. […] The reactions were then quenched by 10 µl sample buffer (×4). The obtained samples were directly loaded and resolved on SDS-PAGE gel (10% acrylamide). The gel-based ABPP results were then scanned and analyzed using a ChemiDoc MP system (Cy3 settings, BioRad).
structure (smiles),measurement,setting,value
"O=C(N1CCCCC1c1ccccc1)n1cc(-c2ccc(-c3cccc(CO)c3)cc2)nn1 (centres unmarked) [KT182, reference compound]",effect on fluorescent signal of AA-HNA hydrolysis by ABHD6,human ABHD6,reduction of the fluorescent signal
same,labeling of ABHD6 (∼32 kDa),ABHD6 in cancer cells,disappeared
